Experiments:
[1] = Compound was evaluated for toxicity in necrosis using MT2 assay at 25 uM concentration at 24 hr; conditions: human
[2] = test system: Human immunodeficiency virus 1; assay: Compound was evaluated for the inhibition of HIV-1 LTR by TNF-alpha-induced NF-kB assay at 50 uM concentration (TNF-alpha-treated cells); format: functional
[3] = test system: Human immunodeficiency virus 1; assay: Compound was evaluated for the inhibition of HIV-1 LTR by HeLa-Tet-ON assay at 50 uM concentration; format: functional
[4] = Compound was evaluated for IP toxicity at concentration that reduces cellular growth; conditions: human
[5] = Compound was evaluated for toxicity in necrosis using MT2 assay at 50 uM concentration at 24 hr; conditions: human
[6] = test system: Human immunodeficiency virus 1; assay: Compound was evaluated for anti-Tat activity in the HeLa-TAT-Luc cell assay against human immunodeficiency virus at 25 uM concentration (Untreated cells); format: functional
[7] = test system: Human immunodeficiency virus 1; assay: Compound was evaluated for the inhibition of HIV-1 LTR by TNF-alpha-induced NF-kB assay at 25 uM concentration (TNF-alpha-treated cells); format: functional
[8] = test system: Human immunodeficiency virus 1; assay: Compound was evaluated for the inhibition of HIV-1 LTR by TNF-alpha-induced NF-kB assay at 100 uM concentration (TNF-alpha-treated cells); format: functional
[9] = test system: Human immunodeficiency virus 1; assay: Compound was evaluated for the inhibition of HIV-1 LTR by HeLa-Tet-ON assay at 25 uM concentration; format: functional
[10] = test system: Human immunodeficiency virus 1; assay: Compound was evaluated for anti-Tat activity in the HeLa-TAT-Luc cell assay against human immunodeficiency virus at 50 uM concentration (Untreated cells); format: functional
[11] = test system: Human immunodeficiency virus 1; assay: Compound was evaluated for anti-Tat activity in the HeLa-TAT-Luc cell assay against human immunodeficiency virus at 100 uM concentration (Untreated cells); format: functional
[12] = test system: Human immunodeficiency virus 1; assay: Compound was evaluated for activity in Recombinant virus assay at concentration that reduces luciferase activity, thus recombinant virus replication; format: functional, organism-based
[13] = test system: Human immunodeficiency virus 1; assay: Compound was evaluated for the inhibition of HIV-1 LTR by TNF-alpha-induced NF-kB assay at 100 uM concentration (TNF-alpha-treated cells);toxic at this dose; format: functional, organism-based
[14] = test system: Human immunodeficiency virus 1; assay: Compound was evaluated for anti-Tat activity in the HeLa-TAT-Luc cell assay against human immunodeficiency virus at 50 uM concentration (Untreated cells);toxic at this dose; format: functional, organism-based
[15] = test system: Human immunodeficiency virus 1; assay: Compound was evaluated for anti-Tat activity in the HeLa-TAT-Luc cell assay against human immunodeficiency virus at 100 uM concentration (Untreated cells);toxic at this dose; format: functional, organism-based

SMILES	Cell death [1]	inhibition at 50 µM [2] [%]	inhibition at 50 µM [3] [%]	CC50 [4] [µM]	Cell death [5]	inhibition at 25 µM [6] [%]	inhibition at 25 µM [7] [%]	inhibition at 100 µM [8] [%]	inhibition at 25 µM [9] [%]	inhibition at 50 µM [10] [%]	inhibition at 100 µM [11] [%]	IC50 [12] [µM]	inhibition [13]	inhibition [14]	inhibition [15]
CCn1c2ccccc2c2cc(C3(C4COC(=O)[C@@H]4C(O)c4cc(OC)c(OC)c(OC)c4)SCCCS3)ccc21 (some centres not stated)	4.6%	39.7	< 15	> 50	4%	11.9	38.5	43.7	< 15	20.3	30.7	26.8			
COc1cc2c(c(OC)c1OC)[C@]13C(=O)OC[C@H]1[C@@H](C)c1cccc4cccc(c14)[C@@H]23	7.8%	56.1	< 15	> 50	11.3%	-53.1	73.6		< 15	-52.9	-53.1	2.29			
O=C1CC(C2(c3cccc4ccccc34)SCCCS2)CO1 (configuration not stated)	2.9%	24.2	> 15		3.5%	6	3	81	< 15	9.7	25.6				
COc1cc(C2C(=O)OCC2C(=O)c2cccc3ccccc23)cc(OC)c1OC (configuration not stated)	6.2%	24.9	> 15		7.6%	11.6	1.5		> 15				Toxic	Toxic	Toxic
COc1cc([C@H]2c3c(ccc4ccccc34)C3(SCCCS3)[C@H]3COC(=O)[C@H]23)cc(OC)c1OC		10.8				-9.1	17.6	-11.7		-9.4	-19				
COc1cc([C@@H]2c3cccc4cccc(c34)C3(SCCCS3)[C@@H]3COC(=O)[C@@H]23)cc(OC)c1OC	10.3%	38			10.5%	-35.9	21.8	23.6		-39.7	-40.9				
COc1cc(C(O)[C@H]2C(=O)OCC2C2(c3ccc4ccccc4c3)SCCCS2)cc(OC)c1OC (some centres not stated)	11.4%	57.2	> 15		14.6%	36.6	77	65.9	> 15	38.8	30.9				
COc1cc([C@@H]2c3c(ccc4ccccc34)C(=O)[C@H]3COC(=O)[C@@H]23)cc(OC)c1OC	5.5%	25.8	> 15		4.5%	-0.6	32.9	95.5	< 15	60	43				
COC(=O)[C@H]1[C@H](c2cc(OC)c(OC)c(OC)c2)c2c(ccc3ccccc23)C(=O)[C@]12CCN=N2	30	87.1	> 15		43.1	38.8	32.9	92	> 15	42.2	46				
CCn1c2ccccc2c2cc(C3(C4COC(=O)C4)SCCCS3)ccc21 (configuration not stated)	4.9%	30	< 15	> 50	4.2%	43.4	-7.1	17.6	< 15	41.5	40.1	4.52			
C=C1C(=O)c2ccc3ccccc3c2[C@@H](c2cc(OC)c(OC)c(OC)c2)[C@@H]1C(=O)OC	95%	98.9	> 15		98%	56.2	96.7		< 15				Toxic	Toxic	Toxic
COc1cc(C(O)[C@@H]2C(=O)OCC2C(=O)c2cccc3ccccc23)cc(OC)c1OC (some centres not stated)	32.1%	64.2	> 15		45.7%	1.6	37.5		> 15	18	65		Toxic		
COc1cc([C@@H]2c3cccc4cccc(c34)C3(SCCCS3)[C@H](CO)[C@@H]2CO)cc(OC)c1OC	7.9%	35.2			6.7%	11.7	43.5	25.2		17.6	16.4				

From ChEMBL document CHEMBL1137184, “Anti-HIV activity of some synthetic lignanolides and intermediates” (Bioorg Med Chem Lett, 2004)
